From ChEMBL document CHEMBL4483862, “Open-source discovery of chemical leads for next-generation chemoprotective antimalarials” (2018) come the findings set out here.

The assay deals with Plasmodium berghei. Kind of assay: Luciferase/luciferin-expressing antifolate-resistant parasites were used to infect a culture of HepG2 cells that were pre-incubated with compounds. Infected hepatocytes emit light due to the luciferase reaction. Assay results are presented as the percent inhibition of light emission compared to control. […]. The assay is classed as functional. The following applies: sporozoite; for IC90: read-out: LUCIFERASE INFECTION ASSAY - IC90.

The mark [1] stands for this setting: read-out: LUCIFERASE INFECTION ASSAY - IC50.

As for `O=C(Cc1ccc(O)cc1)N1CCc2nc(NCc3cccc(Oc4ccccc4)c3)ncc2C1`, the IC90 was determined as 4.97 µM. In addition, the IC50 (HEPG2TOX_HILL_SLOPE 1.26, HEPG2TOX_R_SQUARED 0.949, PBLUC_HILL_SLOPE 2.67, PBLUC_R_SQUARED 0.466, read-out: LUCIFERASE INFECTION ASSAY - IC50) was 2.18 µM.
With `CC1(C(=O)NCc2cccs2)Cc2c(-c3ccccc3)ccnc2O1` (stereo unspecified), the IC90 was more than 9.42 µM. Moreover, the IC50 (FFLUC_HILL_SLOPE 0.144, FFLUC_R_SQUARED 0.18, HEPG2TOX_HILL_SLOPE 3.88, HEPG2TOX_R_SQUARED 0.701, PBLUC_HILL_SLOPE 8.35, PBLUC_R_SQUARED 0.0479, read-out: LUCIFERASE INFECTION ASSAY - IC50) is 7.82 µM.
On to `O=C1CC(c2ccccc2Cl)Cc2c1cnn2-c1nc2ccccc2[nH]1` (stereo unspecified), for which the IC90 amounted to 3.82 µM. The half-maximal inhibitory concentration (IC50) under setting [1] is 3.26 µM.
Consider `N=C(N)SCc1csc(-c2ccc(Br)cc2)n1`, for which the IC90 is more than 9.05 µM. Also, the IC50 under setting [1] was more than 9.05 µM.
Turning to `Cc1ccccc1C(=O)Nc1nc2ccccn2c1C(=O)NC1CCCCC1`, the IC90 is more than 8.77 µM. The IC50 (HEPG2TOX_HILL_SLOPE 2.99, HEPG2TOX_R_SQUARED 0.96, PBLUC_HILL_SLOPE 20.4, PBLUC_R_SQUARED 0.198, read-out: LUCIFERASE INFECTION ASSAY - IC50) stood at 7.88 µM.
Turning to `Cn1c(=O)[nH]c(=O)c2c1nc(Nc1ccc(Cl)cc1Cl)n2CC(=O)O`, the IC90 was more than 10 µM. Further, the IC50 under setting [1] was more than 10 µM.
Turning to `CCc1ccc(C(CNC(=O)c2ccc3c(=O)n(-c4ccccc4F)c(=S)[nH]c3c2)N(C)C)cc1` (stereo unspecified), the IC90 is more than 10 µM. For the setting “PBLUC_HILL_SLOPE 11.1, PBLUC_R_SQUARED 0.257, read-out: LUCIFERASE INFECTION ASSAY - IC50”, the IC50 worked out at 9.21 µM.
In the case of `Cc1ccc(-c2nc3cc(Br)cnc3nc2-c2ccc(C)cc2)cc1`, the concentration for an effect of 90% (IC90) was found to be 6.85 µM. The IC50 (HEPG2TOX_HILL_SLOPE 1.79, HEPG2TOX_R_SQUARED 0.907, PBLUC_HILL_SLOPE 4.08, PBLUC_R_SQUARED 0.409, read-out: LUCIFERASE INFECTION ASSAY - IC50) stood at 4 µM.
As for `COc1ccc(CN2C(=O)c3ccccc3C(C=NNc3nc(=O)cc(C)[nH]3)C2=O)cc1` (stereo unspecified), the IC90 is 3.8 µM. Further, the IC50 (HEPG2TOX_HILL_SLOPE 12.8, HEPG2TOX_R_SQUARED 0.611, PBLUC_HILL_SLOPE 3.06, PBLUC_R_SQUARED 0.688, read-out: LUCIFERASE INFECTION ASSAY - IC50) stood at 1.85 µM.
As for `CC(C)c1cccc(-c2nc3ccnc(NCc4ccccn4)c3[nH]2)c1`, the concentration for an effect of 90% (IC90) is more than 10 µM. Also, the IC50 (HEPG2TOX_HILL_SLOPE 1.38, HEPG2TOX_R_SQUARED 0.883, PBLUC_HILL_SLOPE 3.5, PBLUC_R_SQUARED 0.343, read-out: LUCIFERASE INFECTION ASSAY - IC50) is 6.01 µM.
As to `CCOCCC(=O)Nc1ccc2c(c1)c(=O)n(C)n2Cc1cccc(C(F)(F)F)c1`, the IC90 is more than 7.83 µM. Also, the IC50 under setting [1] is more than 7.83 µM.
In the case of `Cc1cn2c(/C=C/c3nc4cc(Cl)ccc4o3)c(C)nc2s1`, the IC90 was more than 10 µM. Further, the IC50 under setting [1] was more than 10 µM.
Regarding `COc1cccc(Oc2ccc(C(F)(F)F)cc2NC(=O)c2ccc(NC(=O)C3CC3)s2)c1`, the IC90 was more than 10 µM. Further, the IC50 (PBLUC_HILL_SLOPE 3.5, PBLUC_R_SQUARED 0.215, read-out: LUCIFERASE INFECTION ASSAY - IC50) was 6.65 µM.
`O=C(CN1C(=O)C(=O)N(C2CCCC2)C1=O)Nc1cc(Cl)ccc1[N+](=O)[O-]`: the IC90 was more than 10 µM. Moreover, the IC50 under setting [1] was more than 10 µM.
As to `Cn1c2ccccc2c(=O)c2c(=O)n(CCc3ccccc3)c(-c3ccco3)nc21`, the IC90 turned out to be 5.38 µM. Further, the IC50 under setting [1] turned out to be 2.64 µM.
On to `CN(CC(=O)Nc1ccc(Oc2ccccc2)cc1)c1c(N)n(Cc2ccccc2)c(=O)[nH]c1=O`, for which the IC90 was more than 10 µM. Besides, for the setting “PBLUC_HILL_SLOPE 10.4, PBLUC_R_SQUARED 0.215, read-out: LUCIFERASE INFECTION ASSAY - IC50”, the IC50 amounted to 9.74 µM.
Regarding `CC(C)N1CCN(c2ccc(-c3cn4c(-c5ccccc5)cnc4cn3)cc2)CC1`, the IC90 was more than 8.3 µM. For the setting “PBLUC_HILL_SLOPE 2.04, PBLUC_R_SQUARED 0.328, read-out: LUCIFERASE INFECTION ASSAY - IC50”, the IC50 was determined as 5.96 µM.
`CN(C)CC(=O)N1CCN(c2nc(/C=C/c3ccccc3)nc3sc4c(c23)CCCC4)CC1`: the IC90 amounted to 5.01 µM. In addition, the IC50 (PBLUC_HILL_SLOPE 3.64, PBLUC_R_SQUARED 0.565, read-out: LUCIFERASE INFECTION ASSAY - IC50) turned out to be 2.74 µM.
As for `CCOC(=O)C1=C(C)NC(C)=C(C(=O)OCC)C1C(=O)OCC(=O)Nc1c(Br)cc(C)cc1Br`, the IC90 is more than 10 µM. Besides, the IC50 (HEPG2TOX_HILL_SLOPE 0.766, HEPG2TOX_R_SQUARED 0.947, PBLUC_HILL_SLOPE 2.01, PBLUC_R_SQUARED 0.575, read-out: LUCIFERASE INFECTION ASSAY - IC50) was 4.48 µM.
As to `COc1ccc(/C=C(/C(=O)Nc2ccc(C)c(C)c2)c2nc3ccccc3s2)cc1`, the IC90 was determined as 3.66 µM. Moreover, for the setting “HEPG2TOX_HILL_SLOPE 13.8, HEPG2TOX_R_SQUARED 0.904, PBLUC_HILL_SLOPE 19.4, PBLUC_R_SQUARED 0.196, read-out: LUCIFERASE INFECTION ASSAY - IC50”, the IC50 stood at 3.27 µM.
For the molecule `O=[N+]([O-])c1ccc(-c2noc(CCOc3ccc(F)cc3)n2)o1`, the IC90 was found to be 9.89 µM. Also, the IC50 (PBLUC_HILL_SLOPE 3.03, PBLUC_R_SQUARED 0.707, read-out: LUCIFERASE INFECTION ASSAY - IC50) is 4.78 µM.
Take `Cc1cccc(N2CCN(C(=O)c3ccccc3SCC(=O)Nc3ccc(F)cc3)CC2)c1C`: the IC90 was more than 10 µM. In addition, the IC50 (HEPG2TOX_HILL_SLOPE 6.74, HEPG2TOX_R_SQUARED 0.191, PBLUC_HILL_SLOPE 2.5, PBLUC_R_SQUARED 0.41, read-out: LUCIFERASE INFECTION ASSAY - IC50) was determined as 5.48 µM.
On to `C=CCn1c(C)cc(C(=O)CSc2ccc(NC(C)=O)cc2)c1C`, for which the IC90 stood at 2.85 µM. Moreover, the IC50 (PBLUC_HILL_SLOPE 1.26, 1.79, PBLUC_R_SQUARED 0.402, 0.760, read-out: LUCIFERASE INFECTION ASSAY - IC50) came out at 1.34 µM.
Regarding `CCCn1nc(C(=O)Nc2cccc(-c3nc4ccccc4[nH]3)c2)c2ccccc2c1=O`, the IC90 came to 4.7 µM. Moreover, under “PBLUC_HILL_SLOPE 9.6, PBLUC_R_SQUARED 0.205, read-out: LUCIFERASE INFECTION ASSAY - IC50”, the IC50 was 3.74 µM.
Regarding `Nc1ccc(-c2cn3c(-c4ccc(O)cc4)cnc3cn2)cn1`, the IC90 is more than 10.9 µM. The IC50 (PBLUC_HILL_SLOPE 11.6, PBLUC_R_SQUARED 0.257, read-out: LUCIFERASE INFECTION ASSAY - IC50) worked out at 10.2 µM.
For `O=C(CSc1nnc(Nc2ccccc2)s1)Nc1ccccc1N1CCCC1`, the IC90 was more than 10 µM. Moreover, under setting [1], the IC50 was more than 10 µM.
For `O=C1NC(c2c(-c3ccccc3)[nH]c3ccccc23)Nc2ccccc21` (stereo unspecified), the IC90 came to 1.21 µM. The IC50 (HEPG2TOX_HILL_SLOPE 1.35, HEPG2TOX_R_SQUARED 0.878, PBLUC_HILL_SLOPE 2.2, PBLUC_R_SQUARED 0.804, read-out: LUCIFERASE INFECTION ASSAY - IC50) turned out to be 0.447 µM.
As to `COc1ccc(NC(=O)C2C(=S)NC(=N)C(C#N)C2c2ccc(Cl)cc2)cc1` (stereo unspecified), the IC90 was more than 10 µM. Also, the IC50 under setting [1] is more than 10 µM.
Turning to `Cc1ccc2c(COC(=O)[C@@H]3CCCN3C(=O)c3cccs3)cc(=O)oc2c1`, the IC90 was more than 10 µM. For the same molecule, the IC50 under setting [1] was more than 10 µM.
In the case of `O=C1/C(=C/c2ccc3c(c2)OCO3)CCCc2ccccc21`, the IC90 was more than 11.3 µM. For the same molecule, under “HEPG2TOX_HILL_SLOPE 8.25, HEPG2TOX_R_SQUARED 0.793, PBLUC_HILL_SLOPE 3.07, PBLUC_R_SQUARED 0.361, read-out: LUCIFERASE INFECTION ASSAY - IC50”, the IC50 was more than 11.3 µM.
With `Cc1cccn2cc(CN3CCN(S(=O)(=O)c4ccc(Cl)c(C(F)(F)F)c4)CC3)nc12`, the IC90 was more than 10 µM. Besides, under setting [1], the IC50 is more than 10 µM.
As for `O=C(Nc1nc(=O)n(C(=O)c2cccs2)s1)c1ccccc1`, the IC90 was more than 9.96 µM. Also, the IC50 under setting [1] was more than 9.96 µM.
In the case of `Cc1cccc(C)c1NC(=S)NC1CC(C)CC(C)(C)C1` (stereo unspecified), the IC90 amounted to 5.5 µM. Besides, where the note is “HEPG2TOX_HILL_SLOPE 2.42, HEPG2TOX_R_SQUARED 0.462, PBLUC_HILL_SLOPE 8.54, PBLUC_R_SQUARED 0.744, read-out: LUCIFERASE INFECTION ASSAY - IC50”, the IC50 was 4.25 µM.
For the molecule `Cc1cc2occ(CC(=O)Nc3sccc3C(N)=O)c2cc1C(C)C`, the IC90 amounted to 4.1 µM. In addition, the IC50 (HEPG2TOX_HILL_SLOPE 3.18, 2.30, HEPG2TOX_R_SQUARED 0.297, 0.732, PBLUC_HILL_SLOPE 15.1, PBLUC_R_SQUARED 0.252, read-out: LUCIFERASE INFECTION ASSAY - IC50) came to 3.55 µM.
In the case of `CNS(=O)(=O)c1cc(NS(=O)(=O)/C=C/c2ccccc2)ccc1C`, the concentration for an effect of 90% (IC90) was more than 10 µM. The IC50 under setting [1] was more than 10 µM.
Take `O=S(=O)(NCc1cc(Cl)cc(Cl)c1)c1cc(C(F)(F)F)cc(C(F)(F)F)c1`: the IC90 was more than 7.3 µM. Also, the IC50 (PBLUC_HILL_SLOPE 3.39, PBLUC_R_SQUARED 0.218, read-out: LUCIFERASE INFECTION ASSAY - IC50) came to 6.75 µM.
In the case of `COc1ccc(-c2cnc3cnc(-c4ccc(N)nc4)cn23)cn1`, the IC90 amounted to 9.27 µM. The IC50 (PBLUC_HILL_SLOPE 29.9, PBLUC_R_SQUARED 0.596, read-out: LUCIFERASE INFECTION ASSAY - IC50) turned out to be 8.62 µM.
As for `CC1CC(C)CN(c2nc3c(c(=O)[nH]c(=O)n3C)n2Cc2ccccc2F)C1` (stereo unspecified), the IC90 is more than 8.56 µM. Where the note is “PBLUC_HILL_SLOPE 14.3, PBLUC_R_SQUARED 0.575, read-out: LUCIFERASE INFECTION ASSAY - IC50”, the IC50 came to 8.19 µM.

Usually IC50 stands for the point on the concentration scale where inhibition reaches its midpoint. The IC90 is the concentration at which the effect reaches the 90% level.
